The text below walks through data of patent US20140228407A1, “TETRA-PYRIDINE COMPOUNDS AND COMPOSITION FOR PROTECTING CELLS, TISSUES AND ORGANS AGAINST ISCHEMIA-REPERFUSION INJURY” (YISSUM RESEARCH DEVELOPMENT COMPANY OF THE HEBREW …, priority 2011, published 2014).

Each structure is given as a SMILES string.

In test [1] the test system is neonate rat cardiomyocyte cells. In words: Hypoxia in neonatal rat cardiomyocyte cultures, propidium iodide (PI) staining. It counts as cell-based. The settings on record: after 3.5 hours of reoxygenation. The procedure:
Rat hearts (1-2 days old) were sterilely removed and bathed three times in Ca^2+- and Mg^2+-free PBS to remove excess blood cells. The hearts were minced to small fragments and then agitated in a proteolytic enzyme-RDB solution prepared from a fig tree extract as described previously (Brik et al., 1990; Shneyvays et al., 2001). The RDB was diluted 1:200 in PBS at 25° C. for a few cycles of 10 min each. The supernatant suspension containing dissociated cells, to which medium containing 10% horse serum was added, was centrifuged at 500 g for 5 min. After centrifugation, the supernatant phase was discarded, and cells were resuspended in Dulbecco's modified Eagle medium supplemented with 10% heat-inactivated horse serum and 0.5% chick embryo extract. […]
Cultured cardiomyocytes were incubated with propidium iodide (5 μg/ml) (Molecular Probes, Eugene, Oreg.) in PBS for 30 min at 37° C., and propidium iodide (PI) staining was performed by incubating the cells with PI (5 μg/ml) (Molecular Probes, Eugene, Oreg.) in PBS for 30 min at 37° C. in order to differentiate between dead and survived cells following hypoxia (PI-fluorescent stain only nucleus of damaged cardiomyocytes). Thereafter, cells were bathed with PBS twice, and the cell fluorescence was measured through excitation at 485 nm and emission at 635 nm. […]

Another test concerns PC12 cells. Nature of the test: PC12 ischemic model (oxygen and glucose deprivation), cell death by LDH measurement. It counts as cell-based. The settings on record: for protection percentile: protection from cell death, FIG. 6B: identical for both compounds. As for the experimental part:
PC12 cells were grown in 25 cm^2 flasks in Dulbecco's modified Eagles Medium (DMEM), supplemented with 7% fetal bovine serum (FBS), 7% horse serum, […] penicillin and 100 μg/ml streptomycin. Cells were grown in humidified incubator 5% CO2, 95% air at 37° C. The medium was replaced every 2 days, and upon 70% confluence, the cells were counted and seeded for the ischemia experiments.
Approximately 1×10^6 PC12 cells/well were cultured and exposed to ischemia (oxygen and glucose deprivation=OGD) for 4.5 hr. Prior to the exposure, the growth medium was replaced with glucose-free DMEM (1 ml/well). Ischemia was performed in a closed chamber by replacement of air with 95% nitrogen/5% CO2.
Ischemic stress injury was characterized by lactate dehydrogenase (LDH) released from cells. After 4.5 hr of ischemia, a 50 μl sample of supernatant was taken from each well for LDH measurement. At the end of the ischemic insult (after 4.5 hr), glucose (at final concentration of 4.5 g/L by adding 10 μl from stock solution of 450 mg/ml per well (1 ml)) was added to the plates which underwent ischemia. The plates were then transferred to a humidified incubator and exposed to 95% air/5% CO2 at 37° C. for additional 18 hr of reoxygenation. DMEM supernatant samples (25 μl/well) were collected from each well for LDH measurements. The samples were centrifuged at 3500 rpm for 5 min, and 5 μl aliquots of supernatant was taken for LDH measurement.
For every experiment, a duplicate plate was prepared as a control study under normoxia. Cells were kept in a humidified incubator (5% CO2 and 95% air at 37° C.) in cell culture complete medium at a volume of 1 ml for 18 hr, and the same compounds were added with the same concentrations. Supernatant was collected for LDH measurement as indicated in the LDH activity measurement section below. Afterwards (at the end of the reoxygenation phase), the plates were frozen (at −70° C. for 30 min) and thawed once. 25 μl/well sample was collected and the samples were centrifuged at 3500 rpm for 5 min and then taken for LDH measurement (total).
LDH activity was determined using LDH-L kit (Pointe Scientific Inc., Michigan, USA) in the PC12 cell medium. Medium samples (5 μl) were collected at the end of the ischemic insult (after 4.5 hr) and after the reoxygenation period. In parallel, samples from the plates exposed to normoxia were collected. LDH enzymatic activity was measured in a spectrophotometer at a wavelength of 340 nm at 37° C. Data analysis was performed as follows: [OD (cycle 3)−OD (cycle 1)experiment]−[OD(3)−OD(1) control])/[OD(3)−OD(1) total]×100, and presented as percentage of total cell death.
One day before the experiment, 12-well plates were coated with 200 μg/ml type I rat tail collagen (BD Biosciences, Bedford, Mass.) and were further sterilized under UV. 1×10^6 PC12 undifferentiated cells/well were seeded on the plates and allowed to adhere overnight under regular conditions (DMEM medium high glucose 4.5 mg/ml, 5% CO2 and 95% air at 37° C.). Each experiment included 4 plates, two for normoxia and two for ischemia which underwent the same following treatment for all 4 plates.
A half hour before the onset of the ischemic insult, the antioxidant Tempol (4-hydroxy-2,2,6,6-tetramethylpiperidine-1-oxyl) (Sigma, St. Louis, Mo.) at a concentration of 0.5 mM (10 μl/well taken from a 8.6 mg/ml stock solution) or TPEN at a concentration of 3 μM and 10 μM were added to the plates. Before the experiments, the medium was replaced with DMEM glucose free medium at 1 ml volume/well. TPEN or 10 μl Tempol were again added to the appropriate wells and was maintained throughout all experiments.
Thereafter, the plates were introduced into a device inducing ischemia atmosphere with 95% nitrogen and 5% CO2 for 4.5 hr. Oxygen level was monitored online by a digital oxygen monitor showing up to 1%. At the end of OGD, 25 μl from each well was collected into 0.5 ml tubes for the LDH assay. […]

Regarding `Cc1ccc(CN(CCN(Cc2ccc(C)cn2)Cc2ccc(C)cn2)Cc2ccc(C)cn2)nc1` [Compound #6], the “protection by PI staining, 100 nM versus other concentrations of the same compound” value in test [1] (100 nM) is “improve protection vs. other #6 concentrations”. The “protection from hypoxic injury by PI nuclei staining compared with 1 μM TPEN, FIG. 1B” value in test [1] (all concentrations 1 μM, 300 nM, 100 nM and 30 nM) is “better protection than 1 μM of TPEN”. Moreover, the entries for the “effectiveness relative to TPEN on PC12 cell death, FIG. 5” value in the test with PC12 cells (1 μM vs 1 μM TPEN) and in the test on PC12 cells (3 μM vs TPEN at the same concentration) were 2 fold and 3 fold, respectively. The “protection of PC12 cells against ischemia insult-induced cell death vs TPEN at same concentration, FIG. 4” value in the test with PC12 cells (1 μM vs 1 μM TPEN) is “significantly more potent then TPEN”. In the test on PC12 cells (1 μM vs 3 μM TPEN), the “protection of PC12 cells against ischemia insult-induced cell death vs 3 μM TPEN, FIG. 4” value is on record as “more effective than 3 μM TPEN”. In addition, the “effectiveness relative to the un-protected control group of cells, FIG. 5” value in the test on PC12 cells (3 μM) was found to be 4 fold. Further, the “protective effect on PC12 cell death, Compound #6 vs. Compound #4, FIG. 3” value in the test with PC12 cells (at similar concentrations (300 nM, 1 μM, 3 μM)) is listed as “more effective than Compound #4”. Moreover, the “protection percentile: protection from cell death, FIG. 6B” value is on record as 29% in the test on PC12 cells (first of two selected concentrations (not given)) and 63% in the test on PC12 cells (second of two selected concentrations (not given)). Further, the “dose response function, attenuating cell death following ischemia-reperfusion, vs TPEN, FIG. 6A” value in the test on PC12 cells (selected concentrations) is “superior to the latter”.
